Results on two compounds are retold here after patent EP3033433B1, “DETECTION OF ORGANOPHOSPHATE RESISTANCE IN CRUSTACEANS” (priority 2013, dated 2015).

In assay [1] the target is Phe371Tyr, Drosophila amino acid sequence (Drosophila melanogaster, UniProt P07140, F409Y). To be noted: Phe371Tyr mutant versus wild type enzyme; cited from earlier work.
Assay [2] has as its system sea lice (L. salmonis). In words: Bioassay of sea lice strains' sensitivity to azamethiphos (exposure to increasing concentrations). To be noted: Lepeophtheirus salmonis. The class given is in vivo. The text has this: (§1) The parasites had to be tested by a bioassay method, i.e. exposure to increasing concentrations of the agent to see how much they tolerated. As no bioassay method for salmon lice sensitivity towards azamethiphos was published, an unpublished protocol had to be used, with necessary adaptations. To be on the safe side, small scale laboratory treatments with fish infected with parasites containing only the wild-type enzyme versus fish infected with parasites containing the mutation were also successfully performed and confirmed the bioassay results.
The sensitivity of the strains analyzed was tested by traditional bioassays and small scale treatments (Helgesen et al., 2013). The history of the strains were LSAlta: Sampled 2010, inbred for approx. 10 generations. Fully sensitive to all agents LSBjugn: Sampled 2008, inbred for approx. 15 generations. Moderately resistant to azamethiphos, pyrethroids and emamectin benzoate. LSGulen: Sampled in 2004, inbred for approx. 25 generations. Fully sensitive to all agents LSHitra: Sampled in 2011. Resistant towards azamethiphos (not tested for other agents). Inbred for approx. 7 generations. LSHitra-s: Subset of LSHitra where fish with parasites were treated with 100 ppb azamethiphos (Salmosan™) for 30 minutes in a 200 liter fibre-glass tank. The subset is the surviving parasites after treatment. LSVeso: Sampled in 2012 in the field (Otterøya) shortly after a full-scale treatment with azamethiphos in the farm. Only surviving parasites were sampled.

Assay [3] concerns sea lice (L. salmonis). Nature of the assay: Small scale laboratory treatment of fish infected with salmon lice. The class given is in vivo, Lepeophtheirus salmonis. The note with it: 100 ppb azamethiphos.
Source text: as §1
The strains were: LSAlta: Sampled 2010, inbred for approx. 10 generations. No history of insensivity towards azamethiphos. LSBjugn: Sampled 2008, inbred for approx. 15 generations. History of insensitivity towards azamethiphos. LSGulen: Sampled in 2004, inbred for approx. 25 generations. No history of insensivity towards azamethiphos. LSHitra: Sampled in 2011, inbred for approx. 7 generations. History of insensitivity towards azamethiphos. LSHitra-s: Subset of LSHitra where fish with parasites were treated with 100 ppb azamethiphos (Salmosan™) for 30 minutes in a 200 liter fibre-glass tank. The subset is the surviving parasites after treatment. […]
The sensitivity of the strains analyzed was tested by traditional bioassays and small scale treatments (Helgesen et al., 2013). […]

In assay [4] the test system is acetyl cholin esterase from sea lice (L. salmonis). To be noted: within 2 minutes, 0.01 µM azamethiphos, samples collected 2000 - 2002, cited from earlier work.

Values after ≈ are worked out from the molar mass of the structure shown. Read-outs that look alike come from different tables or passages of the source.

With `CCOP(=O)(OCC)Oc1ccc([N+](=O)[O-])cc1` [paraoxon], the “decrease the sensitivity of the enzyme” value in assay [1] was 200 fold.

The EC50 is the midpoint of the concentration-response curve. Consider `COP(=O)(OC)SCn1c(=O)oc2cc(Cl)cnc21` [azamethiphos, S-[(6-Chloro-2-oxo[1,3]oxazolo[4,5-b]pyridin-3(2H)-yl)methyl]O,O-dimethyl phosphorothioate], for which the EC50 was 2.1 ng/mL with sea lice (L. salmonis) [2] (strain LSAlta); 4.5 ng/mL (≈ 0.0139 µM) in the assay on sea lice (L. salmonis) [2] (strain LSBjugn, read-out: EC50); 1.8 ng/mL (≈ 0.00554 µM) with sea lice (L. salmonis) [2] (strain LSGulen, read-out: EC50); 60 ng/mL (≈ 0.185 µM) with sea lice (L. salmonis) [2] (strain LSHitra, read-out: EC50); over 100 ng/mL in the assay on sea lice (L. salmonis) [2] (strain LSVeso, tested at only one concentration, read-out: EC50). The “Treatment efficacy (%) mean” value is listed as 100% in the assay with sea lice (L. salmonis) [3] (strain LSAlta (fully sensitive)) and 50% in the assay with sea lice (L. salmonis) [3] (strain LSHitra (resistant)). Further, the “acetyl cholin esterase inhibited” value in assay [4] (samples with bi-exponential decline rate (most likely heterozygot resistant), activity remained at this level) is recorded as “approx. 80%”. In addition, the enzyme activity inhibited entry in assay [4] (samples with mono-exponential decline rate (most likely wild type)) is given as “inhibited completely”.
